Common to all, as to format: functional
In assay [1] the target is Dual specificity protein kinase CLK2 (Homo sapiens, UniProt P49760).
Assay [2] deals with Dual specificity mitogen-activated protein kinase kinase 1 (Homo sapiens, UniProt Q02750). The experiment in a line: Navigating the Kinome. Panel member name: MAP2K1.
The target in assay [3] is Phosphorylase b kinase gamma catalytic chain, liver/testis isoform (Homo sapiens, UniProt P15735).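 Also: PHKG2 measured as one member of a kinome-wide kinase panel.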
Assay [4] addresses RAC-gamma serine/threonine-protein kinase (Homo sapiens, UniProt Q9Y243).
For assay [5], the target named is Testis-specific serine/threonine-protein kinase 2 (Homo sapiens, UniProt Q96PF2).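 Also: part of the Navigating the Kinome panel, target entry STK22B.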
The target of a further assay is SRSF protein kinase 1 (Homo sapiens, UniProt Q96SB4).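 Also: measured as one member of a kinome-wide kinase profiling panel.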
Assay [6] deals with Casein kinase II subunit alpha (Homo sapiens, UniProt P68400).
The target of assay [7] is Calcium/calmodulin-dependent protein kinase type II subunit delta (Homo sapiens, UniProt Q13557).
Assay [8] deals with Tyrosine-protein kinase JAK3 (Homo sapiens, UniProt P52333).
Assay [9] has as its target Casein kinase I isoform gamma-1 (Homo sapiens, UniProt Q9HCP0).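 Also: measured as the CSNK1G1 member of a kinome profiling panel.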
For assay [10], the target named is Proto-oncogene tyrosine-protein kinase ROS (Homo sapiens, UniProt P08922).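 Also: ROS1 tested as one member of a kinome-wide kinase panel.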
The target of assay [11] is Testis-specific serine/threonine-protein kinase 1 (Homo sapiens, UniProt Q9BXA7).
For assay [12], the target named is Homeodomain-interacting protein kinase 2 (Homo sapiens, UniProt Q9H2X6).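 Also: measured within a kinome-wide kinase profiling panel, HIPK2 being one panel member.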
Assay [13] has as its target Calcium/calmodulin-dependent protein kinase kinase 2 (Homo sapiens, UniProt Q96RR4). Put plainly: Navigating the Kinome. Panel member name: CAMKK2.
The target in assay [14] is Mitogen-activated protein kinase 13 (Homo sapiens, UniProt O15264).
The target in assay [15] is Glycogen synthase kinase-3 alpha (Homo sapiens, UniProt P49840).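 Also: GSK3A result taken from a broad kinome-wide kinase panel.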
The target in assay [16] is Casein kinase I isoform delta (Homo sapiens, UniProt P48730).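 Also: measured as one member (CSNK1D) of a kinome panel.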
The target of assay [17] is Calcium/calmodulin-dependent protein kinase type II subunit beta (Homo sapiens, UniProt Q13554).
The target in assay [18] is Mitogen-activated protein kinase 1 (Homo sapiens, UniProt P28482).
A further assay deals with Focal adhesion kinase 1 (Homo sapiens, UniProt Q05397).
Assay [19] addresses Interleukin-1 receptor-associated kinase 1 (Homo sapiens, UniProt P51617).
Assay [20] concerns the target Platelet-derived growth factor receptor alpha (Homo sapiens, UniProt P16234). The experiment in a line: Navigating the Kinome. Panel member name: PDGFRA.
Assay [21] has as its target Interleukin-1 receptor-associated kinase 4 (Homo sapiens, UniProt Q9NWZ3).
Assay [22] concerns the target Cyclin-dependent kinase 19 (Homo sapiens, UniProt Q9BWU1). Put plainly: Navigating the Kinome. Panel member name: CDC2L6.
The target of assay [23] is Tyrosine-protein kinase Fyn (Homo sapiens, UniProt P06241).
For assay [24], the target named is Homeodomain-interacting protein kinase 4 (Homo sapiens, UniProt Q8NE63).
Assay [25] concerns the target Serine/threonine-protein kinase pim-2 (Homo sapiens, UniProt Q9P1W9).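 Also: value comes from a broad kinase panel profiling study in which PIM2 was one of the panel members.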
Assay [26] addresses Serine/threonine-protein kinase DCLK1 (Homo sapiens, UniProt O15075).
Assay [27] concerns the target Cyclin-dependent kinase 7 (Homo sapiens, UniProt P50613).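 Also: value comes from a kinome-wide kinase profiling panel in which CDK7 is one member.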
The target of assay [28] is Cyclin-dependent kinase 9 (Homo sapiens, UniProt P50750).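 Also: value from the CDK9 entry of a kinome-spanning kinase panel.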
The target of assay [29] is BDNF/NT-3 growth factors receptor (Homo sapiens, UniProt Q16620).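 Also: NTRK2 measured as one member of a broad kinome-wide kinase profiling panel.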
Assay [30] has as its target Receptor tyrosine-protein kinase erbB-4 (Homo sapiens, UniProt Q15303).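 Also: ERBB4 member of a kinome-wide kinase profiling panel.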
Assay [31] concerns the target Serine/threonine-protein kinase MRCK alpha (Homo sapiens, UniProt Q5VT25).
Assay [32] concerns the target Dual specificity tyrosine-phosphorylation-regulated kinase 1A (Homo sapiens, UniProt Q13627).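 Also: measured against DYRK1A as one member of a broad kinome profiling panel.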
For assay [33], the target named is Calcium/calmodulin-dependent protein kinase type II subunit alpha (Homo sapiens, UniProt Q9UQM7). Put plainly: Navigating the Kinome. Panel member name: CAMK2A.
Assay [34] deals with Serine/threonine-protein kinase 3 (Homo sapiens, UniProt Q13188).
The target in assay [35] is Melanin-concentrating hormone receptor 1 (Homo sapiens, UniProt Q99705). The experiment in a line: Late-stage fluorescence-based counterscreen for antagonists of the G-protein coupled receptor 7 (GPR7): cell-based dose response assay to identify antagonists of the melanin-concentrating hormone receptor 1 (MCHR1) Set 6. (The purpose of a counterscreen is to sort out artefacts and off-target activity.)

The target of assay [36] is Neuropeptides B/W receptor type 1 (Homo sapiens, UniProt P48145). The experiment in a line: human NPBW1 receptor blockade, IC50 – cell-based, fluorescence, dose response, set 6, late-stage follow-up (AID 588583).

Calls of active or inactive are those of the source.

By Ki is commonly meant a dissociation constant, usually derived from enzyme kinetics or from competition with a known ligand. Broadly, the IC50 is the midpoint of a concentration-inhibition curve.

Sequence of Testis-specific serine/threonine-protein kinase 1 (Q9BXA7 whole entry): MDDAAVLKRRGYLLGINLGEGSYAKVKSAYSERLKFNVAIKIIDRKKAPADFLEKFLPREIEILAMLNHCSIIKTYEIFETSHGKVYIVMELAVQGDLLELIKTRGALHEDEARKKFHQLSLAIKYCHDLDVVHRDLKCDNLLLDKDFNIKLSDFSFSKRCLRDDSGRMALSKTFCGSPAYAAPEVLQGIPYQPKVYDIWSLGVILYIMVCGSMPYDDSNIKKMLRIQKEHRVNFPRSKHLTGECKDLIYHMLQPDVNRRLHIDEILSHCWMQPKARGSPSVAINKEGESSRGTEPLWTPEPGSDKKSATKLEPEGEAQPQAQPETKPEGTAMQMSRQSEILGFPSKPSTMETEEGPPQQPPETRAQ
Sequence of Cyclin-dependent kinase 19 (Q9BWU1 whole entry): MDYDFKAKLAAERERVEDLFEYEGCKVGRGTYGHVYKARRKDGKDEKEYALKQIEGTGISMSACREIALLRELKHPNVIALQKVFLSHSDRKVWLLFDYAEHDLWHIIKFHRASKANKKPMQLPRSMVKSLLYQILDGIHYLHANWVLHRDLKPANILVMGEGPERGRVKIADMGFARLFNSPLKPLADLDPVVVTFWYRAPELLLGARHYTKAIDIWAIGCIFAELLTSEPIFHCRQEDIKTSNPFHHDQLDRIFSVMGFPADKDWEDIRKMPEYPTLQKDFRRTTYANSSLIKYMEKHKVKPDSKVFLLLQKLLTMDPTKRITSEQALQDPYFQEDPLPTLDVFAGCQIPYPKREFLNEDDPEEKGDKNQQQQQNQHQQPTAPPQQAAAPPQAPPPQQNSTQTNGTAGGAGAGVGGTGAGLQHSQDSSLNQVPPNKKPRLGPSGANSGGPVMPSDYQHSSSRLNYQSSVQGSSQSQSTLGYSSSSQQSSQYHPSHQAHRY
Sequence of Mitogen-activated protein kinase 13 (O15264 whole entry): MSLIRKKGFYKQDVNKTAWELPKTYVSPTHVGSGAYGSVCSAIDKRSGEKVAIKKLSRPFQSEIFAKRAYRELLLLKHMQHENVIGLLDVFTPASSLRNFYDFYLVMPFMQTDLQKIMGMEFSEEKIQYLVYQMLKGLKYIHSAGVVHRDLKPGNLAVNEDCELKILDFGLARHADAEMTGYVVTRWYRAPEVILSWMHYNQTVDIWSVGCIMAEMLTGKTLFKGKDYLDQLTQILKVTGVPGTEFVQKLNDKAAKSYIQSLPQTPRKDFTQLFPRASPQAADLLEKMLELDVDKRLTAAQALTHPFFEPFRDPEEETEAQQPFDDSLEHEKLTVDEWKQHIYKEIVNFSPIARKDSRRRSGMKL
Sequence of RAC-gamma serine/threonine-protein kinase (Q9Y243 whole entry): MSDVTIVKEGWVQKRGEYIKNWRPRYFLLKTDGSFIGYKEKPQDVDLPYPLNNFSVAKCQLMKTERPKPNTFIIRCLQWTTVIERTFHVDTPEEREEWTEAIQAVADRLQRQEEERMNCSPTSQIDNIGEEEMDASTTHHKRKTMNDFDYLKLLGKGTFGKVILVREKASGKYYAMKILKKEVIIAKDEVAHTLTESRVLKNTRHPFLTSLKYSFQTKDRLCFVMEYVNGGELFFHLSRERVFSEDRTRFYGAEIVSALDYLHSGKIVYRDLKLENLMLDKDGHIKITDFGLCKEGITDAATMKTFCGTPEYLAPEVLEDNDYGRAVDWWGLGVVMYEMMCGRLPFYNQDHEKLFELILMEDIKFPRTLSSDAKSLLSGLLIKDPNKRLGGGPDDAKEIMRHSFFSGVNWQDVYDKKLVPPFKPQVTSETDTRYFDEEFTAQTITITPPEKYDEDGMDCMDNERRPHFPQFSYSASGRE
Sequence of Casein kinase II subunit alpha (P68400 whole entry): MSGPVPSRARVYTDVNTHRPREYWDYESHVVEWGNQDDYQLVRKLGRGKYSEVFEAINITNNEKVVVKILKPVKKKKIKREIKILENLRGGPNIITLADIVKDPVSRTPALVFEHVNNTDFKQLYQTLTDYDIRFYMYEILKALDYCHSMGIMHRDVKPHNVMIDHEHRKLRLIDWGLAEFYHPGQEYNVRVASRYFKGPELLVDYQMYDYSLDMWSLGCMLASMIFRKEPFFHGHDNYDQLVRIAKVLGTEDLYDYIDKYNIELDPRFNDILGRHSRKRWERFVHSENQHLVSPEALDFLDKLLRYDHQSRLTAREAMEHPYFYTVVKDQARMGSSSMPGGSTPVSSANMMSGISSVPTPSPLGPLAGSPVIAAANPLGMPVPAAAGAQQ
Sequence of Serine/threonine-protein kinase DCLK1 (O15075 whole entry): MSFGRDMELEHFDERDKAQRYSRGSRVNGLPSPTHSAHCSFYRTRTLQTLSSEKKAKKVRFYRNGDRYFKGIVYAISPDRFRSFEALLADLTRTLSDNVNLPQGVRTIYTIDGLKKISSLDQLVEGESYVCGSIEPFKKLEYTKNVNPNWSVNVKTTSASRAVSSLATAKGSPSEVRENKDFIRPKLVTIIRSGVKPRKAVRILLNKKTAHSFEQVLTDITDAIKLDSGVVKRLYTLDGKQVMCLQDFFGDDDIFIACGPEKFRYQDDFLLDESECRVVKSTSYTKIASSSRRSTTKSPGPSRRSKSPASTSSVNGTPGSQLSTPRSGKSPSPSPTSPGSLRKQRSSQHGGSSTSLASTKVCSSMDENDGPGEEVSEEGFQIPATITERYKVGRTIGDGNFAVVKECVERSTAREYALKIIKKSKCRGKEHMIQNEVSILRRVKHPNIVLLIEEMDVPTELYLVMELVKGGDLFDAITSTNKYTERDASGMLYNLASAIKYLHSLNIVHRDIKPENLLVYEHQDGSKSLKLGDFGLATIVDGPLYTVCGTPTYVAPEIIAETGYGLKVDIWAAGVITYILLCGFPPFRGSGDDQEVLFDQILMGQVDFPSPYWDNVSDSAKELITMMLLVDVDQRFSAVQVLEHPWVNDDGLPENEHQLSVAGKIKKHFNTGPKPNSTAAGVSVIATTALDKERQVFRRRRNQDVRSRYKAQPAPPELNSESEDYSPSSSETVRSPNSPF
Sequence of Calcium/calmodulin-dependent protein kinase kinase 2 (Q96RR4 whole entry): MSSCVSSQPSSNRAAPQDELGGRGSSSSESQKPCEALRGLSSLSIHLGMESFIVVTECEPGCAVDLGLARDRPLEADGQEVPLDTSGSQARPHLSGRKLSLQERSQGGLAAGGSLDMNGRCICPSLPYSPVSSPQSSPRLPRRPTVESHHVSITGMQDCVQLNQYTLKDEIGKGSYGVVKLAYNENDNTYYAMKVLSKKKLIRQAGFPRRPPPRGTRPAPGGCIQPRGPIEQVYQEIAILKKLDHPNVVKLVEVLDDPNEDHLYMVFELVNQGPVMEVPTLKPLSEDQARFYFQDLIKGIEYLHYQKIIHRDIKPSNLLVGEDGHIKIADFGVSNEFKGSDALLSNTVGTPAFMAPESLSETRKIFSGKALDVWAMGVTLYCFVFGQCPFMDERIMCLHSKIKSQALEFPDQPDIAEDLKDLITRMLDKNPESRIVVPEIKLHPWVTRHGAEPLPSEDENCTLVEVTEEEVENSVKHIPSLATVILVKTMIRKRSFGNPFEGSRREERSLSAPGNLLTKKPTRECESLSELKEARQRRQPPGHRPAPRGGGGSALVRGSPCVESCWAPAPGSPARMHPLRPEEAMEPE
Sequence of Serine/threonine-protein kinase pim-2 (Q9P1W9 whole entry): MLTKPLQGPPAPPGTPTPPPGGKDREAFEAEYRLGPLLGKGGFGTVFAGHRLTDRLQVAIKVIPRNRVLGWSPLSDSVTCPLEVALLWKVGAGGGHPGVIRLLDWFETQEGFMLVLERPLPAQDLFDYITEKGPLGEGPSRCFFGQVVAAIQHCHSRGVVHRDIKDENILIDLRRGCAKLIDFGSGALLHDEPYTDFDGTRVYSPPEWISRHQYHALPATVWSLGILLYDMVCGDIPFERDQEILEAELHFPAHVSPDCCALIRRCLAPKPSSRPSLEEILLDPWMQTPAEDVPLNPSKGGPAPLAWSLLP
Sequence of Neuropeptides B/W receptor type 1 (P48145 whole entry): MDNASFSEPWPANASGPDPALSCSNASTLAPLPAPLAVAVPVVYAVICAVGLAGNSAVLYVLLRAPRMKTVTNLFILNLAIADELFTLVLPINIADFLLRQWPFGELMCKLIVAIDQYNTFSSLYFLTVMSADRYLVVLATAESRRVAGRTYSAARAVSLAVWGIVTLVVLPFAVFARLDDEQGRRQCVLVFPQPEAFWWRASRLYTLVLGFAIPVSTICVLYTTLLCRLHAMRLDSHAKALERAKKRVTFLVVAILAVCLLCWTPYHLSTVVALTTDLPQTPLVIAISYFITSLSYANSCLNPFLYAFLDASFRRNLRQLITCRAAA
Sequence of BDNF/NT-3 growth factors receptor (Q16620 whole entry): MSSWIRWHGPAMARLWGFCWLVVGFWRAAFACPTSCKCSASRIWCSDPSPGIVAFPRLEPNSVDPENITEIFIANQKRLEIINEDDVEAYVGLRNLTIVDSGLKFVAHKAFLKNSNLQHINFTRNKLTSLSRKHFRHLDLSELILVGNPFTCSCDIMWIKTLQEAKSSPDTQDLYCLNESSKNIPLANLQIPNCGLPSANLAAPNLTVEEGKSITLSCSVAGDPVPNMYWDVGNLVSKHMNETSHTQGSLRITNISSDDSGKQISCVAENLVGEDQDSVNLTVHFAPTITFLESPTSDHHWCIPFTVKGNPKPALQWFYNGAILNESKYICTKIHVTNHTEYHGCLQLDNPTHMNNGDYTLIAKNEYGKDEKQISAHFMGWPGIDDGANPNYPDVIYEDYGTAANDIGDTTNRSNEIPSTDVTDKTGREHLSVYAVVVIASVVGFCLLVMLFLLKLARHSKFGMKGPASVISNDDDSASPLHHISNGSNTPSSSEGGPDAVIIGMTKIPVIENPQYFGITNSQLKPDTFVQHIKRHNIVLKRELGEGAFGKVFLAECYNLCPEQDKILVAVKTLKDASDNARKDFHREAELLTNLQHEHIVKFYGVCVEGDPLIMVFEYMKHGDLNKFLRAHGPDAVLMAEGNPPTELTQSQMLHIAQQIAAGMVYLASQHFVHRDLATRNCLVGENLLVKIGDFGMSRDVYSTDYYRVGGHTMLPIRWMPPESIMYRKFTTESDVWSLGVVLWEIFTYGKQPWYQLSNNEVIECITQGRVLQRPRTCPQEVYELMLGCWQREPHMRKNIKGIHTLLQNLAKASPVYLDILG

`Cc1cc(Nc2cc(N3CCN(C)CC3)nc(Sc3ccc(NC(=O)C4CC4)cc3)n2)[nH]n1` [TOZASERTIB]: the Ki is > 3.98 µM (inactive) in assay [1]; 1.26 µM (active) in [2]; > 5.01 µM (inactive) in assay [3]; > 10 µM (inactive) in [4]; > 1.58 µM (inactive) in [5]; > 7.94 µM (inactive) at SRSF protein kinase 1. For the same compound, the Ki in assay [6] was > 6.31 µM (inactive); in [7], > 6.31 µM (inactive); in [8], > 5.01 µM (inactive); in assay [9], > 6.31 µM (inactive); in [10] it was 158 nM (active); in [11] it was > 1.58 µM (inactive). Further, the Ki in [12] is > 3.16 µM (inactive); in [13], > 2.51 µM (inactive); in assay [14] it was > 7.94 µM (inactive); in assay [15], > 3.98 µM (inactive); in assay [16], > 7.94 µM (inactive); in [17], > 7.94 µM (inactive). Further, the Ki is > 7.94 µM (inactive) in [18]; > 6.31 µM (inactive) on Focal adhesion kinase 1; > 7.94 µM (inactive) in [19]; > 501 nM (inactive) in [20]; 2.51 µM (active) in assay [21]; 200 nM (active) in assay [22]. For the same compound, the Ki in assay [23] was 3.16 µM (active); in assay [24], > 7.94 µM (inactive); in assay [25] it was > 1.58 µM (inactive); in assay [26], > 10 µM (inactive); in [27], > 3.98 µM (inactive); in assay [28] it was > 1.58 µM (inactive). For the same compound, the Ki is 316 nM (active) in assay [29]; > 3.98 µM (inactive) in assay [30]; > 10 µM (inactive) in [31]; > 2 µM (inactive) in [32]; > 3.98 µM (inactive) in assay [33]; > 2.51 µM (inactive) in [34].

Turning to `C=Cc1cnn(Cc2cccc3ccccc23)c(=O)c1C(C#N)c1ccccc1` (stereo not drawn), the IC50 in [35] and in assay [36] was 2.55 µM (active) each time.

Source of the values: ChEMBL document CHEMBL1201862, “PubChem BioAssay data set” (2004).
